The text below walks through data of US10172858B2, “Combination pharmaceutical compositions and uses thereof” (Intellikine LLC, priority 2011, dated 2019).

The target of assay [1] is PI3K β (Homo sapiens (Human), UniProt P42338). Put plainly: PI3K β kinase assay. The class given is biochemical. Conditions: Table 2.
The target in assay [2] is PI3K γ (Homo sapiens (Human), UniProt P48736). Briefly: PI3K γ kinase assay. The class given is biochemical. Conditions: Table 2.
Assay [3] has as its target PI3K α (Homo sapiens (Human), UniProt P42336). Briefly: PI3K α kinase assay. The class given is biochemical. Conditions: Table 2.
Assay [4] concerns PC3. Put plainly: PC3 tumor cell line proliferation assay. Format: cell-based. Conditions: Homo sapiens, PC-3; Table 2, in vitro IC50.
Protocol: The assay is performed in a 96 well microtiter plate using Alamar Blue reduction. […] A compound disclosed herein is diluted in Tumor Cell Media and added in a 10 ul volume. […] A volume of 10 uL of Alamar Blue reagent is added to each well and plates are incubated for 3 hours at 37 C and 5% CO2. Alamar Blue fluoresce is read at 560Ex/590Em, and IC50 values are calculated using GraphPad Prism 5.
For assay [5], the target named is mTORC (Homo sapiens (Human), UniProt P42345). Briefly: mTORC in vitro IC50 (Table 2). Format: biochemical.
Protocol: The compounds described herein and any other mTor inhibitors known in the art can be tested against recombinant mTOR (Invitrogen) in an assay containing 50 mM HEPES, pH 7.5, 1 mM EGTA, 10 mM MgCl2, 2.5 mM, 0.01% Tween, 10 μM ATP (2.5 μCi of μ-32P-ATP), and 3 μg/mL BSA. Rat recombinant PHAS-1/4EBP1 (Calbiochem; 2 mg/mL) is used as a substrate. Reactions are terminated by spotting onto nitrocellulose, which is washed with 1M NaCl/1% phosphoric acid (approximately 6 times, 5-10 minutes each). Sheets are dried and the transferred radioactivity quantitated by phosphorimaging.
For instance, one can use Invitrogen's LanthaScreen™ Kinase assay to test the inhibitors of mTOR disclosed herein. This assay is a time resolved FRET platform that measures the phosphorylation of GFP labeled 4EBP1 by mTOR kinase. The kinase reaction is performed in a white 384 well microtitre plate. The total reaction volume is 20 ul per well and the reaction buffer composition is 50 mM HEPES pH7.5, 0.01% Polysorbate 20, 1 mM EGTA, 10 mM MnCl2, and 2 mM DTT. In the first step, each well receives 2 ul of test compound in 20% dimethylsulphoxide resulting in a 2% DMSO final concentration. Next, 8 ul of mTOR diluted in reaction buffer is added per well for a 60 ng/ml final concentration. To start the reaction, 10 ul of an ATP/GFP-4EBP1 mixture (diluted in reaction buffer) is added per well for a final concentration of 10 μM ATP and 0.5 μM GFP-4EBP1. The plate is sealed and incubated for 1 hour at room temperature. […] The plate is sealed, incubated for 1 hour at room temperature, and then read on a plate reader set up for LanthaScreen™ TR-FRET. Data is analyzed and IC50s are generated using GraphPad Prism 5.
Assay [6] concerns the target PI3K δ (Homo sapiens (Human), UniProt O00329). Briefly: PI3K δ kinase assay. Format: biochemical.
Assay [7] deals with Endometrial cancer cells containing mutations in PTEN and FGFR2. Briefly: Combination therapy in a tumor mouse model, tumor volume. The class given is in vivo, mice. Conditions: Paclitaxel alone 20 mg/kg Q1W intravenous.
Description: Endometrial cancer cells containing mutations in PTEN and FGFR2 were implanted into mice. Mice having tumor volumes of approximately 150 mm^3 were grouped by treatment schedule, with the start of treatment designated as day 0. Control mice received no treatment.
In a further example, mice were implanted with endometrial cancer cells as above. Mice having tumor volumes of approximately 150 mm^3 were grouped by treatment schedule, with the start of treatment designated as day 0. Control mice received no treatment.
Assay [8] concerns HEC59 (paclitaxel resistant cell line) cells. Put plainly: Growth of HEC59 cells (FIG. 9A). Format: cell-based.
Assay [9] deals with pS6, cleaved PARP. Briefly: Western blot of pS6 and cleaved PARP (FIG. 6). Format: cell-based. Conditions: paclitaxel alone. In general terms: A western blot detects proteins with antibodies after separation by electrophoresis.
In assay [10] the test system is mTORC1-dependent NRDG1 phosphorylation. Put plainly: Western blot of NRDG1 phosphorylation (FIG. 4B). The class given is cell-based.

The structures appear in SMILES notation. Where two headings read alike, the source gives them in different places.

Chain of mTORC (P42345 1360-2549): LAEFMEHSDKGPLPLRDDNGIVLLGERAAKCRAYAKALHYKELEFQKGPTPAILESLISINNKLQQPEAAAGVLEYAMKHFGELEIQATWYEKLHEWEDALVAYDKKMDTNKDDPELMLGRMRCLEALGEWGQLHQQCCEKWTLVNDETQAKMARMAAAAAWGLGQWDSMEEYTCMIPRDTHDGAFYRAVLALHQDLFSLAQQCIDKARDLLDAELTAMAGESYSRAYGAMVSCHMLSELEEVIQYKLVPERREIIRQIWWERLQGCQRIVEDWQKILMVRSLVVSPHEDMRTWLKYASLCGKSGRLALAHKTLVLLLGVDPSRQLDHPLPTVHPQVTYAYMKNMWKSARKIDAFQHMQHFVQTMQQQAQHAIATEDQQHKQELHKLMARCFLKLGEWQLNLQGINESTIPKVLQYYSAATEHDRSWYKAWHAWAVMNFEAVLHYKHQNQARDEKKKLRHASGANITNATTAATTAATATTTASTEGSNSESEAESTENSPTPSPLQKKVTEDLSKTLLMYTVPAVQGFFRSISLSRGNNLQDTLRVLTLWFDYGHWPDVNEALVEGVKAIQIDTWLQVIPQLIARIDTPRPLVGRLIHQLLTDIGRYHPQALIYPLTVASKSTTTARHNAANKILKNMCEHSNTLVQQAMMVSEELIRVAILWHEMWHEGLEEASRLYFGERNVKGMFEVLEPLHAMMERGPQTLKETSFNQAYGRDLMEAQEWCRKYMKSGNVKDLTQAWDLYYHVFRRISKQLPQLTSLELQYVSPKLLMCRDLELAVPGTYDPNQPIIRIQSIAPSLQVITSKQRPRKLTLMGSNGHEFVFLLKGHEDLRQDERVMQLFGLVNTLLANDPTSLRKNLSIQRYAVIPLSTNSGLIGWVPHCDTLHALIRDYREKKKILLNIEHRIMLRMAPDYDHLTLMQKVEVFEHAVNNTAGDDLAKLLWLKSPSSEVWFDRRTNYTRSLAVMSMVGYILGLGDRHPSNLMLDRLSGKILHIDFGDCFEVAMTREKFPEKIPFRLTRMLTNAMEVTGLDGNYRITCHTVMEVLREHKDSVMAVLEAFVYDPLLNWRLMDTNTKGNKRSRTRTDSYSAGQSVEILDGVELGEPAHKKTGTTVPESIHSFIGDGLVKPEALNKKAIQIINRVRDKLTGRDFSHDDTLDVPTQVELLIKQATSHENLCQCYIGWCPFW
Chain of PI3K δ (O00329 whole entry, species assumed): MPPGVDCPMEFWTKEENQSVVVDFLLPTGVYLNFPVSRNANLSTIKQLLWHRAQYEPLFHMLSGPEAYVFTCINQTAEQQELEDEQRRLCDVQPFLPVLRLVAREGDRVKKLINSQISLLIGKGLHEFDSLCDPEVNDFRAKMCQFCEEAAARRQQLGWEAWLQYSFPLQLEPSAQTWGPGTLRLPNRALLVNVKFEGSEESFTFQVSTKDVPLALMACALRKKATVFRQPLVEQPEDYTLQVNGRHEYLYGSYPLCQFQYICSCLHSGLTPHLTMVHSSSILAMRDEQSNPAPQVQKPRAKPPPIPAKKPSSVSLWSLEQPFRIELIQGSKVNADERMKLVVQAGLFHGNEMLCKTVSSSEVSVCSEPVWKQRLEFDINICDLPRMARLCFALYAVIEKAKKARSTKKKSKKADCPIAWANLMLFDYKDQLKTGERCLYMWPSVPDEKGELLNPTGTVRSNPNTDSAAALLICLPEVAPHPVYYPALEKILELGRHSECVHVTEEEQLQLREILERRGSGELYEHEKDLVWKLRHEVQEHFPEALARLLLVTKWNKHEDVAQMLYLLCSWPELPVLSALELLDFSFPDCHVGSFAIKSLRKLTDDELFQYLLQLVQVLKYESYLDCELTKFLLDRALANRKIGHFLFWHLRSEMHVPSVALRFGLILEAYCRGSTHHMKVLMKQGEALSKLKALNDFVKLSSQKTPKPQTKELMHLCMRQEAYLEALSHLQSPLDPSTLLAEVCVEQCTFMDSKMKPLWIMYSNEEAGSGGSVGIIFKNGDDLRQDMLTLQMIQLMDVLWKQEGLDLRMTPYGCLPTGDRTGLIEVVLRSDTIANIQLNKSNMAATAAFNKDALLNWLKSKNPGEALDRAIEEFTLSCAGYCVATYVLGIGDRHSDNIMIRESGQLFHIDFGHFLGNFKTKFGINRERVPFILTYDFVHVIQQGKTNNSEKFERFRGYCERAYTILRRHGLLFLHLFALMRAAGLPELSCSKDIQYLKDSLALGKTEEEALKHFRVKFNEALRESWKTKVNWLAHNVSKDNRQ
Chain of PI3K δ (P27986 whole entry partner, species assumed): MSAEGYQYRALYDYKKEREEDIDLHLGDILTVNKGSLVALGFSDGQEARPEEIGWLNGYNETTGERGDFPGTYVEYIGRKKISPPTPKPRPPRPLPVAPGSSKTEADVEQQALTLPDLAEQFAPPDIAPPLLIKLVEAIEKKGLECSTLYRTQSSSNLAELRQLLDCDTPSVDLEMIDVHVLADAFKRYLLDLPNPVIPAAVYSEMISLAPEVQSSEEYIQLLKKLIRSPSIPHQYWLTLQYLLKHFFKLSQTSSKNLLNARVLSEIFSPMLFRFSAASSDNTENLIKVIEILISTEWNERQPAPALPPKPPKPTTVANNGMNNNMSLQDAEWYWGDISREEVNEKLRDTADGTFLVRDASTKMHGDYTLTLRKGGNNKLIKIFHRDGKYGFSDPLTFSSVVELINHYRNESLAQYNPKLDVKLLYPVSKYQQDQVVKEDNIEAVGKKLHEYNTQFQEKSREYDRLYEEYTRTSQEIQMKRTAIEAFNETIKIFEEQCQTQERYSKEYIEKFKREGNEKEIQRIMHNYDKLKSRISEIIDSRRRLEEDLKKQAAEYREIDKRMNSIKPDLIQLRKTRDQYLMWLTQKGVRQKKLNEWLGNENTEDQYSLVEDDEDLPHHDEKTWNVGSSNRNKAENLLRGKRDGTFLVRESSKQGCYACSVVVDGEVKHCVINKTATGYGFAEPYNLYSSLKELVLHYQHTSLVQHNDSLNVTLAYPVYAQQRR
Chain of PI3K α (P42336 whole entry): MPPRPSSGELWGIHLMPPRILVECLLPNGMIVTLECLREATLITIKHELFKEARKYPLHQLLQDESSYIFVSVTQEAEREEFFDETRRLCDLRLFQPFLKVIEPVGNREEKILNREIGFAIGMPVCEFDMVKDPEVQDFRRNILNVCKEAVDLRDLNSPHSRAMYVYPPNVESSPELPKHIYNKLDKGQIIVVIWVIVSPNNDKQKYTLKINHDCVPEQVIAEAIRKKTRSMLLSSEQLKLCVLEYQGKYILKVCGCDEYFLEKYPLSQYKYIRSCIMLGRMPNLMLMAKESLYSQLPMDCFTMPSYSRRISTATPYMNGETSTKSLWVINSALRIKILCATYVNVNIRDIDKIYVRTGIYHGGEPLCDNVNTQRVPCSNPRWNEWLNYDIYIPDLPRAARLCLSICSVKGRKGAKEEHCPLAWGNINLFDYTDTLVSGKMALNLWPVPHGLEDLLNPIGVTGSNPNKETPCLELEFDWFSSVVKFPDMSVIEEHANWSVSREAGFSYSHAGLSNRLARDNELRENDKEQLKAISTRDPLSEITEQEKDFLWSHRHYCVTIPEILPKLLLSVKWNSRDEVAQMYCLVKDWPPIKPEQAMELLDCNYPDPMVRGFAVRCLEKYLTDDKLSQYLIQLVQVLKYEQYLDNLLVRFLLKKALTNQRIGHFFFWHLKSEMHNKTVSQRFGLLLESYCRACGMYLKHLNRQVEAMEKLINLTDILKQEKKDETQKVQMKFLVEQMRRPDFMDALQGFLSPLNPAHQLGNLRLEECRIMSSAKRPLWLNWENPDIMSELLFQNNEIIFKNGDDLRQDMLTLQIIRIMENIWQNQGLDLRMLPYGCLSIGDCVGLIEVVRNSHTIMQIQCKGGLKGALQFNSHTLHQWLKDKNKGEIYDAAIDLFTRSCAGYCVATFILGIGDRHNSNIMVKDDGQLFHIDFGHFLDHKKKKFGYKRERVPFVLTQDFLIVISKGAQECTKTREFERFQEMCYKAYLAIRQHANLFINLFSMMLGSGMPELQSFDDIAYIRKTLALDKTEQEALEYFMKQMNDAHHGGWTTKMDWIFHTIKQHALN
Chain of PI3K α (P27986 whole entry partner): as the sequence (P27986 whole entry partner, species assumed) above

As for `Nc1ncnc2c1c(-c1cc3cccc(O)c3[nH]1)nn2C1CCN(C(=O)C2CC2)CC1` [Compound 41], the IC50 – broadly, the concentration at which inhibition is half-maximal – in assay [1] was greater than 500 nM; in assay [2], less than 50 nM; in [3] it was greater than 500 nM; in [4], greater than 500 nM; in assay [5], less than 10 nM; in assay [6] (Table 2), greater than 500 nM.
On to `CC(C)N1CCC(n2nc(-c3cc4c(Cl)ccc(O)c4[nH]3)c3c(N)ncnc32)CC1` [Compound 71], for which the IC50 in [1] was greater than 500 nM; in [2], greater than 500 nM; in assay [3], greater than 500 nM; in assay [5] it was less than 100 nM; in [6] it was greater than 500 nM.
Regarding `CC(=O)O[C@H]1C(=O)[C@@]2(C)[C@H]([C@H](OC(=O)c3ccccc3)[C@]3(O)C[C@H](OC(=O)[C@H](O)[C@@H](NC(=O)c4ccccc4)c4ccccc4)C(C)=C1C3(C)C)[C@]1(OC(C)=O)CO[C@@H]1C[C@@H]2O` [Paclitaxel], the “increase in average tumor volume by day 22” value in [7] was 17%. Moreover, the “average tumor volume by day 22” value in assay [7] (from about 150 mm^3 at day 0) is reported as “about 175 mm^3”. Moreover, the “inhibition of the growth of HEC59 cells” value in assay [8] is recorded as “partial inhibition”. The pS6 level entry in [9] is “induction of pS6”.
As to `CO[C@H]1C[C@@H]2CC[C@@H](C)[C@@](O)(O2)C(=O)C(=O)N2CCCC[C@H]2C(=O)O[C@H]([C@H](C)C[C@@H]2CC[C@@H](O)[C@H](OC)C2)CC(=O)[C@H](C)/C=C(\C)[C@@H](O)[C@@H](OC)C(=O)[C@H](C)C[C@H](C)/C=C/C=C/C=C/1C` [rapamycin], the “sensitivity of mTORC1-dependent NRDG1 phosphorylation” value in [10] is “not”.
